Marks after values point to notes of the source that are not given here.
What was measured:
[1] = cited from earlier work
[2] = system: Gram positive bacteria; details: cited from earlier work
[3] = system: Gram negative bacteria; details: cited from earlier work
[4] = system: fungi; details: cited from earlier work
[5] = system: microbial growth; details: cited from earlier work
[6] = Iron(III) binding affinity by NaOH titration with UV-vis spectra (HypSpec2014); details: 25° C.
Description: The titrations were carried out under a wet nitrogen atmosphere to avoid concentration changes due to evaporation. Aliquots of each complex solution were taken periodically during the titration and the UV-vis spectra of the aliquots were collected as a batch once the titration was completed. The pH range studied spanned the equilibrium between bis and tris coordination for the ligands as these are the only two species expected at physiological pH. For Fe3-DIBI the spectra were collected 24 h after collecting the batch of aliquots. The spectra were processed using HypSpec2014 to determine the iron(III) binding affinity of […] and deferiprone (DFP) as reference as summarized in Table 7.

[7] = Resistance of chelator-bound iron(III) to chemical reduction by dithionite; assay type: physicochemical; details: 0.1 M MOPS, pH 7.4
Text: Chemical reduction of iron from Fe(III) to Fe(II) is part of the chemical reductive cycling of iron that drives ROS production in and around cells and also facilities removal of iron from intracellular stores for use elsewhere in the body. Generally iron in extracellular compartments of the body is in the Fe(III) form this helping to limit iron related toxic reactions as free Fe(II) would quickly oxidize to Fe(III) and this could drive, for example, ROS production. Thus, the relative ability of an iron chelator to hold Fe(III) and resist its reduction to Fe(II) would have benefits. Correspondingly, the relative chemical reducibility of Fe(III) to Fe(II) as bound by deferiprone, MAHMP and DIBI was tested. The different iron loaded chelators were first prepared so that iron only sufficient to ensure initial presence of fully coordinated iron(III) was used, i.e. a ratio of three chelator molecules of either deferiprone or MAHMP to each iron(III) atom present. DIBI with its measured MAHMP content was also similarly loaded with iron added just sufficient to satisfy its MAHMP iron binding sites on a similar basis. The iron-chelates were then reacted with dithionite (DT, [S2O4]^2−) a chemical reductant for iron and the relative changes in absorbance intensity at 460 nm was used to monitor for iron reduction with results as shown in FIG. 2.

[8] = system: ferroptosis; details: cited from earlier work
[9] = system: cells challenged with high-glucose; details: cited from earlier work
[10] = in vivo; cited from earlier work
[11] = Approx, based on close analogue 36 and FBS0701; cited from earlier work
[12] = clinical trials; cited from earlier work
[13] = target: T1, ferroportin (Homo sapiens, UniProt Q9NP59); details: clinical testing, advanced to phase II; cited from earlier work
T1 sequence (Q9NP59 1-571): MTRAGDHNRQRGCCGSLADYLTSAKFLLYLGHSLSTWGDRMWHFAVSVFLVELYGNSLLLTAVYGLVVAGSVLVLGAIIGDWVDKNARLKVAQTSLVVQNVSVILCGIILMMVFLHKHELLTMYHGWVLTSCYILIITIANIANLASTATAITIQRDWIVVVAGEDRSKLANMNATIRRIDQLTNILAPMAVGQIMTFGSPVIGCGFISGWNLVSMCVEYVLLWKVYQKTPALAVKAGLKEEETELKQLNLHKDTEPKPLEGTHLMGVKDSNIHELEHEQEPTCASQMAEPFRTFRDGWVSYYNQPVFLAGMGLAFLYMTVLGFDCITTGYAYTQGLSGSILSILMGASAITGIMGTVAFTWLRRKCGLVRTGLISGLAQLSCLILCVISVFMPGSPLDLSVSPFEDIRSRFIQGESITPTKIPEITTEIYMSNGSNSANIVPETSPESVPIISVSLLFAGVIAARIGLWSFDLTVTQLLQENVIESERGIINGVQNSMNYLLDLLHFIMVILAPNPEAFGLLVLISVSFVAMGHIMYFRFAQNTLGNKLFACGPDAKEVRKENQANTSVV

[14] = doxorubicin-induced mouse model; cited from earlier work

SMILES	Hydrophobicity/ hydrophilicity log P [1]	MIC Gram positive bacteria [2]	MIC Gram negative bacteria [3]	MIC fungi [4]	Antimicrobial activity [5]	cell viability [9]	other results
O=C(O)c1ccc(-n2nc(-c3ccccc3O)nc2-c2ccccc2O)cc1 [Deferasirox]	4.3 ^b	21^l μM	133^m μM	67^p μM	Low	–	–
Cc1c(O)c(=O)ccn1C [Deferiprone]	−0.8 ^b	575^e μM	287^k μM	1151^n μM	Very Low	–	Log β1 iron binding formation constant [6]: 15.01(1); Log β2 iron binding formation constant [6]: 27.5(7); Log β3 iron binding formation constant [6]: 36.7(1); reduction of bound iron(III) by dithionite (intensity of 460 nm band) [7]: readily reduced
CC(=O)N(O)CCCCCNC(=O)CCC(=O)N(O)CCCCCNC(=O)CCC(=O)N(O)CCCCCN [Deferoxamine]	−3 ^b	>913^k μM	>913^k μM	>228^n μM	Poor,	rescued cell viability	effect on ferroptosis [8]: suppression; infections in test animals [10]: fatal infections
C=C(C)C(=O)NCCn1ccc(=O)c(O)c1C [MAHMP]	–	–	–	–	–	–	Log β1 iron binding formation constant [6]: 15.01(1); Log β2 iron binding formation constant [6]: 27.9(1); Log β3 iron binding formation constant [6]: 38.22(6); reduction of bound iron(III) by dithionite (intensity of 460 nm band) [7]: The same reaction was observed
COCCOCCOc1ccc(C2=N[C@@](C)(C(=O)O)CS2)c(O)c1 [SP-420]	−0.89	–	–	–	–	–	Fe binding constant log K [11]: 33.1-33.4; renal toxicity [12]: undesirable renal toxicity
O=C(NCc1ncccc1F)c1coc(CCNCCc2nc3ccccc3[nH]2)n1 [VIT-2763]	–	–	–	–	–	–	lowering serum iron levels [13]: good potential for lowering serum iron levels; toxicity [13]: low toxicity
O=C([O-])CN(CC(=O)[O-])CC(=O)[O-].[Fe+3] [ferric-nitriloacetate (NTA), ferric-nitriloacetate]	–	–	–	–	–	–	effect on ferroptosis [8]: promote ferroptosis and renal carcinoma
CCOC(=O)c1ccc(NC2CCCCC2)c(N)c1 [ferrostatin-1]	–	–	–	–	–	rescued cell viability	cardiac function [14]: improved cardiac function; mortality [14]: reduced mortality
O=c1c(O)c(-c2ccc(O)c(O)c2)oc2cc(O)cc(O)c12 [quercetin]	–	–	–	–	–	rescued cell viability	–

From patent publication US20250205275A1, “POLYMERIC IRON BINDING COMPOSITIONS AND METHODS OF USE FOR TREATING DISEASES ASSOCIATED WITH EXCESS DAMAGING REACTIVE IRON” (Fe Pharmaceuticals (Canada) Inc., priority 2022, published 2025)
